Data as given in publication PMC3744530, “CTA095, a Novel Etk and Src Dual Inhibitor, Induces Apoptosis in Prostate Cancer Cells and Overcomes Resistance to Src Inhibitors” (PLoS ONE, 2013).

What was measured:
Etk = molecular target: T1, Etk (Homo sapiens, UniProt P51813); experiment: Kinase inhibition assay (TLC, 33P-ATP); type: biochemical; settings: for IC50: Etk
T1 construct: purchased Millipore Inc (Dundee, UK)
T1 sequence (P51813 1-675): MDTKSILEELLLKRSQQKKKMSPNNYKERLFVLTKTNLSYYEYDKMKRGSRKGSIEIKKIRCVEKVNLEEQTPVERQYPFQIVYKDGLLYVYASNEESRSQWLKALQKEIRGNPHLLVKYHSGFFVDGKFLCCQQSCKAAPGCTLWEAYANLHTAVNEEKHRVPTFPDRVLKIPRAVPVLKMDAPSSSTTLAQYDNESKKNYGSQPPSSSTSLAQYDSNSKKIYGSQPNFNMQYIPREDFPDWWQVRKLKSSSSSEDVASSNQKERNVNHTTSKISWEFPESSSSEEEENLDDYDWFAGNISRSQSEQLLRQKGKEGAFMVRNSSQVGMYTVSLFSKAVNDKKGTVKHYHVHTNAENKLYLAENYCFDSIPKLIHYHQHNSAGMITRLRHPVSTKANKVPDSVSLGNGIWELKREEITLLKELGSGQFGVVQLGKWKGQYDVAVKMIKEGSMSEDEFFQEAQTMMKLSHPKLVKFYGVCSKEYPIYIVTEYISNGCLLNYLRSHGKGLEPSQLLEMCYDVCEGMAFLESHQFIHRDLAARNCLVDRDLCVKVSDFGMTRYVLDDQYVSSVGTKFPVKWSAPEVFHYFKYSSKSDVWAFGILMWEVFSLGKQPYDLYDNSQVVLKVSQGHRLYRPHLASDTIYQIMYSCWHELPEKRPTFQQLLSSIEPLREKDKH
Description: (§1) Kinase inhibition was measured using thin-layer-chromatography (TLC). Briefly, purified kinases (20 nM), the corresponding substrate (500 µM, TSFYGRH for Etk, YIYGSFK for the other kinases), and CTA095 (0–10 µM) were incubated in a kinase reaction (100 mM Hepes, pH 7.4, 10 mM MnCl2, 10 mM MgCl2, 1 mM DTT) for 5 min, and the reaction was started by adding 5 μCi ^33P-labeled ATP. The reaction (10 µl) was incubated at room temperature for 1 h and was stopped by adding 10 μL H3PO4. The radioactivity of the peptide substrate was analyzed using TLC as previously described.
(§2) Having isolated a small molecule that inhibits Etk, the next logical step was to determine its specificity for this enzyme. To accomplish this, purified Etk, Btk, Src and Yes were incubated in a kinase reaction buffer with CTA095 (0–1 μM) in the presence of ^33P-labeled ATP and a peptide (YIYGSFK), previously shown to be an excellent substrate for both BTK and Src family kinases. The kinase activity was measured using TLC technique.

Src = molecular target: T2, Src (Homo sapiens, UniProt P12931); experiment: Kinase inhibition assay (TLC, 33P-ATP); type: biochemical
T2 construct: purchased Millipore Inc (Dundee, UK)
T2 sequence (P12931 whole entry): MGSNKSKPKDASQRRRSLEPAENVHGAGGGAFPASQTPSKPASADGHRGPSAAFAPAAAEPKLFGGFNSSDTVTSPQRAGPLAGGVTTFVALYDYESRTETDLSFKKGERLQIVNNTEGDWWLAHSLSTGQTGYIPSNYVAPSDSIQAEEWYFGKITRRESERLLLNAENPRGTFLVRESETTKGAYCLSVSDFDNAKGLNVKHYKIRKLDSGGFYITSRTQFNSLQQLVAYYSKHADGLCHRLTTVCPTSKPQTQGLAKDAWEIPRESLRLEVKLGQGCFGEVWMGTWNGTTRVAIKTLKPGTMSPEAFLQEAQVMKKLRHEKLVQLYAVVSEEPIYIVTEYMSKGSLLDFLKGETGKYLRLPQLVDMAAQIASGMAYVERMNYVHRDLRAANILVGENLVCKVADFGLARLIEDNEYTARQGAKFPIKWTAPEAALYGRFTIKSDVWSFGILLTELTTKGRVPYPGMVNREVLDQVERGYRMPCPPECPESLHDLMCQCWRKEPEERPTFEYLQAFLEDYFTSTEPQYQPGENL
Description: as §1, §2

Yes = molecular target: T3, Yes (Homo sapiens, UniProt P07947); experiment: Kinase inhibition assay (TLC, 33P-ATP); type: biochemical
T3 construct: purchased Millipore Inc (Dundee, UK)
T3 sequence (P07947 whole entry): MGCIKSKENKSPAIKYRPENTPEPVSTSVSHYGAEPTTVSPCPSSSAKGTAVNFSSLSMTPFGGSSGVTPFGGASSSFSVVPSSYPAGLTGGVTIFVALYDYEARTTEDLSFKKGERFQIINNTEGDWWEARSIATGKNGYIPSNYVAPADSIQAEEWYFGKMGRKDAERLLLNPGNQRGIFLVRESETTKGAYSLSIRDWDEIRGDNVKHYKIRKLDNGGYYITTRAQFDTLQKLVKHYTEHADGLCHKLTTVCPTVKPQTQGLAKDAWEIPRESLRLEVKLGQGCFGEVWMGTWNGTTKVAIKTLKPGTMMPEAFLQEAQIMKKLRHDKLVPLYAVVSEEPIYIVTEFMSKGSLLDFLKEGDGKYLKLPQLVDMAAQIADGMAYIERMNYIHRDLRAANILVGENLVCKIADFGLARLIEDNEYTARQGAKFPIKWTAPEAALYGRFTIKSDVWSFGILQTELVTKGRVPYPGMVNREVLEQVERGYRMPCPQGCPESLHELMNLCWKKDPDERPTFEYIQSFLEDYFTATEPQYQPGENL
Description: as §1, §2

Abl = Abl (Homo sapiens, UniProt P00519); experiment: Kinase inhibition assay (TLC); type: biochemical
Description: as §1
(§3) In addition to the Btk family tyrosine kinases, the inhibitory activity of CTA095 to other kinases, including Lyn, Axl, Mer, EGFR, and Abl, was investigated using a TLC assay.

Axl = Axl (Homo sapiens, UniProt P30530); experiment: Kinase inhibition assay (TLC); type: biochemical
Chain of Axl (P30530 26-894, species assumed): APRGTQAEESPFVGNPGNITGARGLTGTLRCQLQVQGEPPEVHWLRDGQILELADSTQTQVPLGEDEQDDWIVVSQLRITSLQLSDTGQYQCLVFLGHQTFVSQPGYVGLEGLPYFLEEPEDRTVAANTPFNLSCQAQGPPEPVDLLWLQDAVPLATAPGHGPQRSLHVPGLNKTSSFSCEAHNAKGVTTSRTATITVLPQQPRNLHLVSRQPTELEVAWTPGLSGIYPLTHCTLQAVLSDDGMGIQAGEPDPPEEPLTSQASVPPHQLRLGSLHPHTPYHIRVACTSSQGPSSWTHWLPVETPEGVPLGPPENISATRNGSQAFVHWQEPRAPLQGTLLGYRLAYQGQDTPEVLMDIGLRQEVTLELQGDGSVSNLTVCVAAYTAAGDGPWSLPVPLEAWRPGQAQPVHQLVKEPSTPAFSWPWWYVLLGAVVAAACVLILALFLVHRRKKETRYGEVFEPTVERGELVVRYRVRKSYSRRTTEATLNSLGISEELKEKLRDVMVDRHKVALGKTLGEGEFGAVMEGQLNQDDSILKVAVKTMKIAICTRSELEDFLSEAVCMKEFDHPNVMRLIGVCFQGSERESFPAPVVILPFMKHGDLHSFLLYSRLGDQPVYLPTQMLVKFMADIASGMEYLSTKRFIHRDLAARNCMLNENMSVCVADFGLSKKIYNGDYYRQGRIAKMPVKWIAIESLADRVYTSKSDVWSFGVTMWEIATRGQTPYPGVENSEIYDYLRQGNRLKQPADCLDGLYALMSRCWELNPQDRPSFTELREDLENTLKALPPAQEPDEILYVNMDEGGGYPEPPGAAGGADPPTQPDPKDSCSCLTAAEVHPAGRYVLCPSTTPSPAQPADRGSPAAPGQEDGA
Description: as §1, §3

EGFR = EGFR (Homo sapiens, UniProt P00533); experiment: Kinase inhibition assay (TLC); type: biochemical
Chain of EGFR (P00533 25-1210, species assumed): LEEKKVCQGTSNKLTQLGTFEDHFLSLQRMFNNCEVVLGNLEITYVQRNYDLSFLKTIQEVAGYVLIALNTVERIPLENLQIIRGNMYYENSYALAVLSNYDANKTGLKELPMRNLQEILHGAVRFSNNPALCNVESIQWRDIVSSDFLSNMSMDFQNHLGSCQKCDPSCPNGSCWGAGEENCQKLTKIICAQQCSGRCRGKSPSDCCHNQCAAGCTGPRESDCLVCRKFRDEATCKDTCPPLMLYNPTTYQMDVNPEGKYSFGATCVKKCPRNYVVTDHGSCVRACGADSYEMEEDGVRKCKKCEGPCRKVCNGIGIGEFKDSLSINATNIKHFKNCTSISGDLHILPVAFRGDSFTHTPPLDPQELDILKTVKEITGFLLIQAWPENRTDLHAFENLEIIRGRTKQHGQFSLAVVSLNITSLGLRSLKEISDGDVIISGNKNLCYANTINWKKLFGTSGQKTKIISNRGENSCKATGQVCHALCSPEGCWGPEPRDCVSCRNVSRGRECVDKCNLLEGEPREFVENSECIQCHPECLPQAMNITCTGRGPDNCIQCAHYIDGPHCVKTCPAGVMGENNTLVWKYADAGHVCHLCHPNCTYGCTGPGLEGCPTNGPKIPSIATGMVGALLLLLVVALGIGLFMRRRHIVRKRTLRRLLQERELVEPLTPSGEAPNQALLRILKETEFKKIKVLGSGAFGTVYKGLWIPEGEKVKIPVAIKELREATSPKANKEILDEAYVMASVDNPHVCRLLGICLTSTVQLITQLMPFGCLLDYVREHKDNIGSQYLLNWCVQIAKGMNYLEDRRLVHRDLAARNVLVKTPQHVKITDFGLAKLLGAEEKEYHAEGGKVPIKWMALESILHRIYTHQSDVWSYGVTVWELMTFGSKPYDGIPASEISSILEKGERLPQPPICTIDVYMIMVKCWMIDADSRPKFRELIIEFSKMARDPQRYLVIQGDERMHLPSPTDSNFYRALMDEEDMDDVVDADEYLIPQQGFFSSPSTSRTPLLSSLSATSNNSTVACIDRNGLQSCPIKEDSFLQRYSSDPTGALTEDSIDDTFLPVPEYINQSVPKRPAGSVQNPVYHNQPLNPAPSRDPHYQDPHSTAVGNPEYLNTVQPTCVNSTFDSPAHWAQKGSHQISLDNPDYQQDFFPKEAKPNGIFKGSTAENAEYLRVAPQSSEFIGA
Description: as §1, §3

Itk = Itk (Homo sapiens, UniProt Q08881); experiment: Kinase inhibition assay (TLC); type: biochemical
Chain of Itk (Q08881 whole entry, species assumed): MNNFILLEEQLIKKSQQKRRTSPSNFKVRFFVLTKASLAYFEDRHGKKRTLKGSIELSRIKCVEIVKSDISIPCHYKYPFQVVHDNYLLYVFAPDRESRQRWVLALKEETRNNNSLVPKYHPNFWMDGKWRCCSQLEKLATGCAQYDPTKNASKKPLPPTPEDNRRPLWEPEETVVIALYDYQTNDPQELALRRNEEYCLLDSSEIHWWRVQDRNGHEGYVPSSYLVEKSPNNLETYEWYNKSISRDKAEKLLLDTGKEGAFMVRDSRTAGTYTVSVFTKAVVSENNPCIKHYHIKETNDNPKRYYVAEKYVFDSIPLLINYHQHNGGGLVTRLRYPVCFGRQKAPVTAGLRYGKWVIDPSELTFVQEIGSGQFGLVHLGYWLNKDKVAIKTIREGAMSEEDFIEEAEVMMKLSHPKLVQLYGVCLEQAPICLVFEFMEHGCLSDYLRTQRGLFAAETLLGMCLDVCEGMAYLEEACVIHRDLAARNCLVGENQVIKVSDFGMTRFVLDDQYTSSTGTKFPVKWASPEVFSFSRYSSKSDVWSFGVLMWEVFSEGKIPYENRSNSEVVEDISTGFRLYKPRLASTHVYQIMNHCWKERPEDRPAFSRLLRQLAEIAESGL
Description: as §1, §3

Lyn = Lyn (Homo sapiens, UniProt P07948); experiment: Kinase inhibition assay (TLC); type: biochemical
Description: as §1, §3

Mer = molecular target: T4, Mer (Homo sapiens, UniProt Q12866); experiment: Kinase inhibition assay (TLC); type: biochemical
T4 construct: purchased Millipore Inc (Dundee, UK)
T4 sequence (Q12866 21-999): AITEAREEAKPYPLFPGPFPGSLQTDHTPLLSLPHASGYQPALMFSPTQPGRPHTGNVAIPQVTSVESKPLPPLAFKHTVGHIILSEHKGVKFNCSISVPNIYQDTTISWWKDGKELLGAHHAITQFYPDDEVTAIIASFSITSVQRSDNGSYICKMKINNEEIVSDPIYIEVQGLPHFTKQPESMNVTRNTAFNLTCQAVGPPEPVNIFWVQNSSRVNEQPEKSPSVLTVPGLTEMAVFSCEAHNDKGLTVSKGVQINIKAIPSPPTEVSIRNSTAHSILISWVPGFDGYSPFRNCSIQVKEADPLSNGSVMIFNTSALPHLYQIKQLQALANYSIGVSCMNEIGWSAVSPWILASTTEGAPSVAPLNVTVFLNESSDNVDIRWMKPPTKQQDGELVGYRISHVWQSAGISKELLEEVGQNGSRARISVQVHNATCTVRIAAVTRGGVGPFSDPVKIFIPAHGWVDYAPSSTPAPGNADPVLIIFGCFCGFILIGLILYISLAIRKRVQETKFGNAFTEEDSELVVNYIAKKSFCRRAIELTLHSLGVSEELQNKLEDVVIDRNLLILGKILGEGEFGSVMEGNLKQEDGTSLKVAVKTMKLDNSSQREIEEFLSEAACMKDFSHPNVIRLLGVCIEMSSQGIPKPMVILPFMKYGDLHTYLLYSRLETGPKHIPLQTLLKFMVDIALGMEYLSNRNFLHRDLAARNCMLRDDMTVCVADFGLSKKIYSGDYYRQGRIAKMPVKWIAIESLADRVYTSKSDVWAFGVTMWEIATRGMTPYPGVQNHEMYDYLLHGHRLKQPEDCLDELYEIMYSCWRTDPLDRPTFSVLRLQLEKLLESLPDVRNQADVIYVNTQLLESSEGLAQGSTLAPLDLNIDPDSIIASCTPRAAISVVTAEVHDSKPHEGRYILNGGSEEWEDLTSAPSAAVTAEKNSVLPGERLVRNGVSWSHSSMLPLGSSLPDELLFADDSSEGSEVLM
Description: as §1, §3

caspase3/7 in PC3 cells = experiment: Caspase-3/7 activity (Apo-ONE Homogeneous assay); type: cell-based, human; settings: PC3, 0–10 μM, 24 h
Description: For caspase 3/7 activities, PC3 cells were seeded at 5,000 cells/well in 96-well plate overnight. Then the cells were treated with 0–10 μM CTA095 for 24 h. Caspase-3/7 activities were measured using the Apo-ONE Homogeneous Caspase-3/7 Assay kit (Promega, Madison, WI) according to the manufacturer's instruction. For caspase 9 activity, PC3 cells were seeded in 10 mm tissue culture plate and grew to 50% confluence. Cells were then treated with 0–10 μM CTA095 for 24 h. Cells were harvested and caspase 9 activity was measured using a Western blot with an anti-caspase 9 antibody.
Figure 7 Induction of apoptosis of PC3 cells following treatment with CTA095. PC3 cells were seeded at 10^6 cells/ml (2 ml) in a 6-well plate overnight and then treated with CTA095 at the indicated concentrations for 24 h. Cell cycle arrest was analyzed using PI staining (A). Apoptosis was analyzed using Annexin-V FITC apoptosis detection kit (B). Caspase 9 activation was measured using western blot (D). For caspase 3/7 activity, PC3 cells were seeded at 5000 cells/well in 96 well plate overnight and treated with CTA095 at 0–10 μM for 24 h. Caspase-3/7 activities were measured using the Apo-ONE Homogeneous Caspase-3/7 Assay kit (Promega, Madison, WI) according to the manufacturer's instruction. Columns, mean; bars, standard deviation, n = 3. […]

IC50 (Etk; TLC assay): 60 nM
IC50 (Etk; TLC, peptide YIYGSFK, 33P-ATP): ~60 nM
Etk inhibition (Etk; compound 1 μM, Etk 20 nM, compared with other CT compounds): significant Etk inhibition
IC50 (Src; TLC assay): 120 nM
IC50 (Src; TLC, peptide YIYGSFK, 33P-ATP): ~120 nM
IC50 (Yes): > 10000 nM
IC50 (Abl): > 10000 nM
IC50 (Axl): > 10000 nM
IC50 (EGFR): > 10000 nM
IC50 (Itk): > 10000 nM
IC50 (Lyn): > 10000 nM
IC50 (Mer): > 10000 nM
Compound: O=c1[nH]c2cc3nc(-c4ccc5oc6ccccc6c5c4)n(CCCN4CCCCC4)c3cc2nc1-c1ccccc1 [CTA095, 2-(dibenzo[b,d]furan-2-yl)-7-phenyl-1-(3-(piperidin-1-yl)propyl)-1H-imidazo[4,5-g]quinoxalin-6(5H)-one]
activation of caspase3/7 (caspase3/7 in PC3 cells): dose dependent activation
